Numbered stars: 1 amine (or outer) side, 2 acyl side, 3 side chain; on linkers, the order of the positions; unused ones are H or OH. Square brackets hold non-standard residues; d marks the D form. Side chains are listed from the residue outwards. Peptide text beside a SMILES is read from it. * marks the point of attachment. γGlu = O=C(O)[C@H](CCC(=O)[*:2])N[*:1]; Stearoyl = CCCCCCCCCCCCCCCCCC(=O)*; Palmitoyl = CCCCCCCCCCCCCCCC(=O)*; AEEA = NCCOCCOCC(=O)O; Aib = CC(C)(N)C(=O)O
Assays:
[1] = Thioflavin T (ThT) assay for physical stability (fibrillation); type: physicochemical; conditions: 3 mg/ml, 100 mM acetate pH 4.5 with m-cresol, 37° C. shaking
Text: Low physical stability of a peptide solution may lead to amyloid fibril formation, which is observed as well-ordered, thread-like macromolecular structures in the sample, which eventually may lead to gel formation. Thioflavin T (ThT) is widely used to visualize and quantify the presence of misfolded protein aggregates. [Biancalana et al. (2010) Biochimica et Biophysica Acta. 1804 (7): 1405-1412]. […] Enzymol. 309, 274-284]. The time course for fibril formation often follows the characteristic shape of a sigmoidal curve and can be separated into three regions: a lag phase, a fast growth phase, and a plateau phase.
The typical fibril formation process starts with the lag phase in which the amount of partially folded peptide turned into fibrils is not significant enough to be detected. The lag-time corresponds to the time the critical mass of the nucleus is built. Afterwards, a drastic elongation phase follows and fibril concentration increases rapidly.
Investigations were carried out to determine fibrillation tendencies under stress conditions by shaking at 37° C. within Fluoroskan Ascent FL.
For the tests in Fluoroskan Ascent FL, 200 μL sample were placed into a 96 well mictrotiter plate PS, flat bottom, Greiner Fluotrac No. 655076. Plates were sealed with Scotch Tape (Quiagen). Samples were stressed by continuous cycles of 10 s shaking at 960 rpm and 50 s rest period at 37° C. The kinetic was monitored by measuring fluorescence intensity every 20 minutes.
Peptides were diluted in a buffer system to a final concentration of 3 mg/ml. 20 μL of a 10.1 mM ThT solution in H2O were added to 2 mL of peptide solution to receive a final concentration of 100 μM ThT. For each sample eight replicates were tested.
Tht buffer system A) 100 mM Acetate pH 4.5 including m-cresol (100 mM Natriumacetat trihydrat, pH adjustment using 2N CH3COOH, 2.7 mg/mL m-cresol) Tht buffer system B) 100 mM citrate buffer pH 6.0
Lag time in hours in Thioflavin T (ThT) assay of peptide samples was determined in ThT buffer system A as described in Methods.

[2] = system: female diabetic db/db mice; experiment: Acute effects after s.c. treatment on blood glucose in non-fasting female diabetic db/db mice; type: in vivo; conditions: single 30 μg/kg s.c.
Method: Female healthy, lean BKS.Cg-(lean)/OlaHsd and diabetes-prone, obese BKS.Cg-+Lepr^db/+Lepr^db/OlaHsd mice were ordered group housed from Envigo RMS Inc., shipped group housed and remained group housed in shoebox caging with wood chip bedding until day 15 of the predose phase. At the study start mice were approximately 12 weeks old.
Mice were housed under vivarium conditions including a 12 h light/dark cycle (light phase 04:00 AM-4:00 PM), room temperatures between 23-26° C. and a relative humidity between 30-70%. All animals had free access to water and Purina Fomulab Diet 5008.
On predose day 9 blood glucose and body mass (approximately between 08:00-10:00 AM) as well as HbA1c measurements were performed. On day 15 of the predose phase animals were assigned to treatment groups (n=8) and to new cages to match mean HbA1c and body masses between all db/db groups. An age-matched lean group was included in the study as a healthy, lean reference.
Prior to day 1 of the dosing phase, the test article was diluted with Phosphate Buffered Saline (PBS, Gibco, without CaCl2 and MgCl2) to a concentration of 1 mg/mL and aliquots of this stock solution were stored at approximately ≤−60° C. On day 1 of the dosing phase the stock aliquot was thawed and the injected test article solution was prepared fresh by diluting it with PBS to achieve the desired concentration.
On Day 1 of the dosing phase db/db mice were either treated once with a s.c. injection of PBS-vehicle or 30 μg/kg test article. The lean reference group was treated once with a s.c. injection of PBS-vehicle. The dosing was initiated and completed between 08:00 and 10:00 AM. The applied volume was 5 ml/kg and the dose was adjusted to the most recent body mass recording of each individual.
Animals had unlimited access to water and feed during the experiment. On day 1 of the dosing phase approximately 5 μL of blood were collected via tail clips at minute −30 and 0 prior to any other inlife activities. At minute 0 mice received a s.c. dose of either PBS-vehicle or 30 μg/kg test article. Further blood samples were harvested at hour 0.25, 0.5, 1, 1.5, 2, 3, 4, 6, 8, and 24 post-dose. Glucose measurements were performed in whole blood using AlphaTRAK glucometers. If the glucose concentrations of two measurements differed by more than 20 mg/dL a third value was recorded. The Area Under the Curve (AUC) for blood glucose was calculated via the trapezoid method and for the duration of the 24 post-dose hours.
In the Figures data are depicted as means±SEM. […] A One Way Analysis of Variance and multiple comparisons (Dunnett's Method) were performed comparing the group of diabetic, obese db/db vehicle mice (n=8) with each diabetic, obese db/db test article treated mice (n=8). […] Non-diabetic, lean-vehicle group data are depicted in the Figures serving as a reference dataset for the non-obese, non-diabetic state.

Row | Compound | Lag time before increase [1] | mean blood glucose concentration 24 hours post-dose relative to baseline [2]
1 | CCCCCCCCCCCCCCCCCC(=O)N[C@@H](CCC(=O)NCCCC[C@H](NC(=O)[C@H](CC(C)C)NC(=O)[C@H](CCCCN)NC(=O)[C@H](CO)NC(=O)[C@H](CC(C)C)NC(=O)[C@H](CC(=O)O)NC(=O)[C@H](CO)NC(=O)[C@@H](NC(=O)[C@H](Cc1ccccc1)NC(=O)[C@@H](NC(=O)CNC(=O)[C@H](Cc1c[nH]cn1)NC(=O)C(C)(C)NC(=O)[C@@H](N)Cc1c[nH]cn1)[C@@H](C)O)[C@@H](C)O)C(=O)N[C@@H](CCC(=O)O)C(=O)N[C@@H](CCC(=O)O)C(=O)N[C@@H](CCC(N)=O)C(=O)N[C@@H](CCCNC(=N)N)C(=O)N[C@@H](CCC(N)=O)C(=O)NC(C)(C)C(=O)N[C@@H](CCC(=O)O)C(=O)N[C@@H](Cc1ccccc1)C(=O)N[C@H](C(=O)N[C@@H](CCC(=O)O)C(=O)N[C@@H](Cc1c[nH]c2ccccc12)C(=O)N[C@@H](CC(C)C)C(=O)N[C@@H](CCCCN)C(=O)N[C@@H](C)C(=O)N[C@H](C)C(=O)NCC(=O)N1CCC[C@H]1C(=O)N1CCC[C@H]1C(=O)N[C@@H](CO)C(=O)NC(C)(C)C(=O)N[C@@H](CCCCN)C(=O)N1CCC[C@H]1C(=O)N1CCC[C@H]1C(=O)N1CCC[C@H]1C(=O)N[C@@H](CCCCN)C(N)=O)[C@@H](C)CC)C(=O)O [SEQ ID NO: 17, H-Aib-H-G-T-F-T-S-D-L-S-K-L-K[gGlu-Stea]-E-E-Q-R-Q-Aib-E-F-I-E-W-L-K-A-dAla-G-P-P-S-Aib-K-P-P-P-K-NH2] (H-H[Aib]HGTFTSDLSKLK([γGlu-Stearoyl])EEQRQ[Aib]EFIEWLKA[dA]GPPS[Aib]KPPPK-NH2) | >45 h | 
2 | CCCCCCCCCCCCCCCC(=O)N[C@@H](CCC(=O)NCCCC[C@H](NC(=O)[C@H](CC(C)C)NC(=O)[C@H](CCCCN)NC(=O)[C@H](CO)NC(=O)[C@H](CC(C)C)NC(=O)[C@H](CC(=O)O)NC(=O)[C@H](CO)NC(=O)[C@@H](NC(=O)[C@H](Cc1ccccc1)NC(=O)[C@@H](NC(=O)CNC(=O)[C@H](Cc1c[nH]cn1)NC(=O)C(C)(C)NC(=O)[C@@H](N)Cc1c[nH]cn1)[C@@H](C)O)[C@@H](C)O)C(=O)N[C@@H](CCC(=O)O)C(=O)N[C@@H](CCC(=O)O)C(=O)N[C@@H](CCC(N)=O)C(=O)N[C@@H](CCCNC(=N)N)C(=O)N[C@@H](CCC(N)=O)C(=O)NC(C)(C)C(=O)N[C@@H](CCC(=O)O)C(=O)N[C@@H](Cc1ccccc1)C(=O)N[C@H](C(=O)N[C@@H](CCC(=O)O)C(=O)N[C@@H](Cc1c[nH]c2ccccc12)C(=O)N[C@@H](CC(C)C)C(=O)N[C@@H](CCCCN)C(=O)N[C@@H](C)C(=O)NCC(=O)NCC(=O)N1CCC[C@H]1C(=O)N1CCC[C@H]1C(=O)N[C@@H](CO)C(=O)NC(C)(C)C(=O)N[C@@H](CCCCN)C(=O)N1CCC[C@H]1C(=O)N1CCC[C@H]1C(=O)N1CCC[C@H]1C(=O)N[C@@H](CCCCN)C(N)=O)[C@@H](C)CC)C(=O)O [SEQ ID NO: 18, H-Aib-H-G-T-F-T-S-D-L-S-K-L-K[gGlu-Palm]-E-E-Q-R-Q-Aib-E-F-I-E-W-L-K-A-G-G-P-P-S-Aib-K-P-P-P-K-NH2] | >45 h | 
3 | H-Aib-H-G-T-F-T-S-D-L-S-K-L-K[gGlu-gGlu-AEEA-Palm]-E-E-Q-R-Q-Aib-E-F-I-E-W-L-K-A-G-G-P-P-S-Aib-K-P-P-P-K-NH2 (H-H[Aib]HGTFTSDLSKLK([γGlu-γGlu-AEEA-Palmitoyl])EEQRQ[Aib]EFIEWLKAGGPPS[Aib]KPPPK-NH2) [SEQ ID NO: 26] |  | at or close to baseline
4 | CCCCCCCCCCCCCCCC(=O)N[C@@H](CCC(=O)NCCCC[C@H](NC(=O)[C@H](CC(C)C)NC(=O)[C@H](CCCCN)NC(=O)[C@H](CO)NC(=O)[C@H](CC(C)C)NC(=O)[C@H](CC(=O)O)NC(=O)[C@H](CO)NC(=O)[C@@H](NC(=O)[C@H](Cc1ccccc1)NC(=O)[C@@H](NC(=O)CNC(=O)[C@H](Cc1c[nH]cn1)NC(=O)C(C)(C)NC(=O)[C@@H](N)Cc1c[nH]cn1)[C@@H](C)O)[C@@H](C)O)C(=O)N[C@@H](CCC(=O)O)C(=O)N[C@@H](CCC(=O)O)C(=O)N[C@@H](CCC(N)=O)C(=O)N[C@@H](CCCNC(=N)N)C(=O)N[C@@H](CCC(N)=O)C(=O)NC(C)(C)C(=O)N[C@@H](CCC(=O)O)C(=O)N[C@@H](Cc1ccccc1)C(=O)N[C@H](C(=O)N[C@@H](CCC(=O)O)C(=O)N[C@@H](Cc1c[nH]c2ccccc12)C(=O)N[C@@H](CC(C)C)C(=O)N[C@@H](CCCCN)C(=O)N[C@@H](C)C(=O)N[C@H](C)C(=O)NCC(=O)N1CCC[C@H]1C(=O)N1CCC[C@H]1C(=O)N[C@@H](CO)C(=O)NC(C)(C)C(=O)N[C@@H](CCCCN)C(=O)N1CCC[C@H]1C(=O)N1CCC[C@H]1C(=O)N1CCC[C@H]1C(=O)N[C@@H](CCCCN)C(N)=O)[C@@H](C)CC)C(=O)O [SEQ ID NO: 16, H-Aib-H-G-T-F-T-S-D-L-S-K-L-K[gGlu-Palm]-E-E-Q-R-Q-Aib-E-F-I-E-W-L-K-A-dAla-G-P-P-S-Aib-K-P-P-P-K-NH2] (H-H[Aib]HGTFTSDLSKLK([γGlu-Palmitoyl])EEQRQ[Aib]EFIEWLKA[dA]GPPS[Aib]KPPPK-NH2) | >45 h | at or close to baseline
5 | CCCCCCCCCCCCCCCCCC(=O)N[C@@H](CCC(=O)NCCCC[C@H](NC(=O)[C@H](CC(C)C)NC(=O)[C@H](CCCCN)NC(=O)[C@H](CO)NC(=O)[C@H](CC(C)C)NC(=O)[C@H](CC(=O)O)NC(=O)[C@H](CO)NC(=O)[C@@H](NC(=O)[C@H](Cc1ccccc1)NC(=O)[C@@H](NC(=O)CNC(=O)[C@H](Cc1c[nH]cn1)NC(=O)C(C)(C)NC(=O)[C@@H](N)Cc1c[nH]cn1)[C@@H](C)O)[C@@H](C)O)C(=O)N[C@@H](CCC(=O)O)C(=O)N[C@@H](CCC(=O)O)C(=O)N[C@@H](CCC(N)=O)C(=O)N[C@@H](CCCNC(=N)N)C(=O)N[C@@H](CCC(N)=O)C(=O)NC(C)(C)C(=O)N[C@@H](CCC(=O)O)C(=O)N[C@@H](Cc1ccccc1)C(=O)N[C@H](C(=O)N[C@@H](CCC(=O)O)C(=O)N[C@@H](Cc1c[nH]c2ccccc12)C(=O)N[C@@H](CC(C)C)C(=O)N[C@@H](CCCCN)C(=O)N[C@@H](C)C(=O)NCC(=O)NCC(=O)N1CCC[C@H]1C(=O)N1CCC[C@H]1C(=O)N[C@@H](CO)C(=O)NC(C)(C)C(=O)N[C@@H](CCCCN)C(=O)N1CCC[C@H]1C(=O)N1CCC[C@H]1C(=O)N1CCC[C@H]1C(=O)N[C@@H](CCCCN)C(N)=O)[C@@H](C)CC)C(=O)O [SEQ ID NO: 19, H-Aib-H-G-T-F-T-S-D-L-S-K-L-K[gGlu-Stea]-E-E-Q-R-Q-Aib-E-F-I-E-W-L-K-A-G-G-P-P-S-Aib-K-P-P-P-K-NH2] (H-H[Aib]HGTFTSDLSKLK([γGlu-Stearoyl])EEQRQ[Aib]EFIEWLKAGGPPS[Aib]KPPPK-NH2) | >45 h | 
